The record followed here is patent publication US7592347B2, “Piperazine derivates and their use for the treatment of neurological and psychiatric diseases” (Glaxo Group Limited, priority 2003, dated 2009).

Counter-ions that a name gives are not always drawn.

T1 sequence (Q9Y5N1 whole entry): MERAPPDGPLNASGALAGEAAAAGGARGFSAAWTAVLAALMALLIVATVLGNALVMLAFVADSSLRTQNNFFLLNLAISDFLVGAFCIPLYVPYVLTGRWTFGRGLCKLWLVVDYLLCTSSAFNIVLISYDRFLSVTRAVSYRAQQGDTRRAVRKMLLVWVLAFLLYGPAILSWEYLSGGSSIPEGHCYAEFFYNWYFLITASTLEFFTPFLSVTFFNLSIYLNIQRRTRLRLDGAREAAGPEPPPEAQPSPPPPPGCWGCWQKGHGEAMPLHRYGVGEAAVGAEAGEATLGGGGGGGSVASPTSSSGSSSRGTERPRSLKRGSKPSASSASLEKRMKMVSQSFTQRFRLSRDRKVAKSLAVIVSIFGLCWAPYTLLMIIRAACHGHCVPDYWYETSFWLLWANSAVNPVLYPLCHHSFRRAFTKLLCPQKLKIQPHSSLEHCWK

The experiment has as its target T1, histamine H3 receptor (Homo sapiens, UniProt Q9Y5N1).
T1 construct: expressed in transfected cells; host or cells: CHO K1 cells carrying pSwitch, transfected with pGeneH3 and induced with mifepristone; clone 3H3; membranes
Nature of the experiment: Histamine H3 functional antagonist assay ([35S]GTPγS SPA, membranes of CHO K1 cells expressing human H3). Format: biochemical. The settings on record: functional antagonism of histamine (0.3 μM) stimulated [35S]GTPγS binding, membranes of CHO K1 cells with human histamine H3. The protocol: A membrane preparation containing histamine H3 receptors may be prepared in accordance with the following procedures:
Ligated DNA was transformed into competent DH5α E. coli host bacterial cells and plated onto Luria Broth (LB) agar containing Zeocin™ (an antibiotic which allows the selection of cells expressing the sh ble gene which is present on pGene and pSwitch) at 50 μg ml^−1. Colonies containing the re-ligated plasmid were identified by restriction analysis. DNA for transfection into mammalian cells was prepared from 250 ml cultures of the host bacterium containing the pGeneH3 plasmid and isolated using a DNA preparation kit (Qiagen Midi-Prep) as per manufacturers guidelines (Qiagen).
CHO K1 cells previously transfected with the pSwitch regulatory plasmid (InVitrogen) were seeded at 2×10e6 cells per T75 flask in Complete Medium, containing Hams F12 (GIBCOBRL, Life Technologies) medium supplemented with 10% v/v dialysed foetal bovine serum, L-glutamine, and hygromycin (100 μg ml^−1), 24 hours prior to use. Plasmid DNA was transfected into the cells using Lipofectamine plus according to the manufacturers guidelines (InVitrogen). 48 hours post transfection cells were placed into complete medium supplemented with 500 μg ml^−1 Zeocin™.
10-14 days post selection 10 nM Mifepristone (InVitrogen), was added to the culture medium to induce the expression of the receptor. […] Approximately 1×10e7 cells were examined for receptor expression by staining with a rabbit polyclonal antibody, 4a, raised against the N-terminal domain of the histamine H3 receptor, incubated on ice for 60 minutes, followed by two washes in sorting medium. […] Following two further washes with Sorting Medium, cells were filtered through a 50 μm Filcon™ (BD Biosciences) and then analysed on a FACS Vantage SE Flow Cytometer fitted with an Automatic Cell Deposition Unit. […] Positively stained cells were sorted as single cells into 96-well plates, containing Complete Medium containing 500 μg ml^−1 Zeocin™ and allowed to expand before reanalysis for receptor expression via antibody and ligand binding studies.
All steps of the protocol are carried out at 4° C. and with pre-cooled reagents. The cell pellet is resuspended in 10 volumes of buffer A2 containing 50 mM N-2-hydroxyethylpiperazine-N′-2-ethanesulfonic acid (HEPES)(pH 7.40) supplemented with 10e−4M leupeptin (acetyl-leucyl-leucyl-arginal; Sigma L2884), 25 μg/ml bacitracin (Sigma B0125), 1 mM ethylenediamine tetra-acetic acid (EDTA), 1 mM phenylmethylsulfonyl fluoride (PMSF) and 2×10e−6M pepstain A (Sigma). The cells are then homogenised by 2×15 second bursts in a 1 litre glass Waring blender, followed by centrifugation at 500 g for 20 minutes. The supernatant is then spun at 48,000 g.for 30 minutes. The pellet is resuspended in 4 volumes of buffer A2 by vortexing for 5 seconds, followed by homogenisation in a Dounce homogeniser (10-15 strokes). At this point the preparation is aliquoted into polypropylene tubes and stored at −70° C. […]
The plate is then incubated on a shaker at room temperature for 30 minutes followed by centrifugation for 5 minutes at 1500 rpm. The plate is read between 3 and 6 hours after completion of centrifuge run in a Wallac Microbeta counter on a 1 minute normalised tritium count protocol. Data is analysed using a 4-parameter logistic equation. Basal activity used as minimum i.e. histamine not added to well.
The term Kb denotes the affinity of an antagonist, worked out from how it opposes an agonist. The molecule `CC(C)N1CCN(C(=O)C2CCN(c3ccc(C#N)cn3)CC2)CC1` [Example E1, 1-Isopropyl-4-[1-(5-cyano-pyridin-2-yl)-piperidine4-carbonyl]-piperazine hydrochloride] gave an antagonist equilibrium constant (Kb) of less than 3.16 nM.

`CC(C)N1CCN(C(=O)C2CCN(c3ccc(C#N)cc3)CC2)CC1` [Example E2, 1-Isopropyl-4-[1-(4-cyanophenyl)-piperidine-4-carbonyl]-piperazine hydrochloride] showed an antagonist equilibrium constant (Kb) of less than 1 nM.

`COC(=O)c1cnc(N2CCC(C(=O)N3CCN(C(C)C)CC3)CC2)cc1C(F)(F)F` [Example E4, 1-Isopropyl-4-[1-(5-methoxycarbonyl-4-trifluoromethylpyridin-2-yl)-piperidine-4-carbonyl]-piperazine] gave an antagonist equilibrium constant (Kb) of less than 3.16 nM.

As to `CCOC(=O)c1ccc(N2CCC(C(=O)N3CCN(C(C)C)CC3)CC2)cc1` [Example E8, 1-Isopropyl-4-[1-(4ethoxycarbonylphenyl)-piperidine-4-carbonyl]-piperazine], the antagonist dissociation constant (Kb) is less than 3.16 nM.

For `N#Cc1ccc(N2CCC(C(=O)N3CCN(C4CCC4)CC3)CC2)cc1` [Example E9, 1-Cyclobutyl-4-[1-(4-cyanophenyl)-piperidine-4-carbonyl]-piperazine], the Kb was less than 3.16 nM.

For `N#Cc1ccc(N2CCC(C(=O)N3CCN(C4CCC4)CC3)CC2)cc1F` [Example E10, 1-Cyclobutyl-4-[1-(4-cyano-3-fluorophenyl)-piperidine-4-carbonyl]-piperazine], the Kb is less than 3.16 nM.

Turning to `N#Cc1cc(F)c(N2CCC(C(=O)N3CCN(C4CCC4)CC3)CC2)c(F)c1` [Example E11, 1-Cyclobutyl4-[1-(4-cyano-2,6-difluorophenyl)-piperidine-4-carbonyl]-piperazine], the Kb is less than 3.16 nM.

For `N#Cc1ccc(N2CCC(C(=O)N3CCN(C4CCC4)CC3)CC2)cc1C(F)(F)F` [Example E12, 1-Cyclobutyl-4-[1-(4-cyano-3-trifluoromethylphenyl)-piperidine-4-carbonyl]-piperazine], the Kb was less than 3.16 nM.

As to `N#Cc1ccc(N2CCC(C(=O)N3CCN(C4CCC4)CC3)CC2)c2ccccc12` [Example E13, 1-Cyclobutyl-4-[1-(4-cyano-naphthalen-1-yl)-piperidine-4-carbonyl]-piperazine], the Kb is less than 3.16 nM.

On to `N#Cc1ccc(N2CCC(C(=O)N3CCN(C4CCC4)CC3)CC2)nc1` [Example E14, 1-Cyclobutyl-4-[1-(5-cyanopyridin-2-yl)-piperidine-4-carbonyl]-piperazine], for which the antagonist dissociation constant (Kb) is less than 3.16 nM.

The molecule `O=C(C1CCN(c2cccc(C(F)(F)F)n2)CC1)N1CCN(C2CCC2)CC1` [Example E15, 1-Cyclobutyl-4-[1-(6-trifluoromethylpyridin-2-yl)-piperidine-4-carbonyl]-piperazine] gave a Kb of less than 3.16 nM.

`O=C(C1CCN(c2ccc(C(F)(F)F)cn2)CC1)N1CCN(C2CCC2)CC1` [Example E16, 1-Cyclobutyl-4-[1-(5-trifluoromethylpyridin-2-yl)-piperidine-4-carbonyl]-piperazine]: the Kb was less than 3.16 nM.

In turn, `O=C(C1CCN(c2ncc(C(F)(F)F)cc2Cl)CC1)N1CCN(C2CCC2)CC1` [Example E17, 1-Cyclobutyl-4-[1-(3-chloro-5-trifluoromethylpyridin-2-yl)-piperidine-4-carbonyl]-piperazine] showed an antagonist equilibrium constant (Kb) of less than 3.16 nM.

`CC(C)N1CCN(C(=O)C2CCN(c3ncc(-c4ccc(S(C)(=O)=O)cc4)cn3)CC2)CC1` [Example E25, 1-Isopropyl-4-{1-[5-(4-methylsulfonylphenyl)-pyrimidin-2-yl]-piperidine-4-carbonyl}-piperazine]: the antagonist dissociation constant (Kb) was less than 3.16 nM.

The molecule `CC(C)N1CCN(C(=O)C2CCN(c3ccc(C(=O)N4CCOCC4)cc3)CC2)CC1` [Example E30, 1-Isopropyl-4-{1-[4-(morpholino-carbonyl)-phenyl]-piperidine-4-carbonyl}-piperazine hydrochloride] showed an antagonist equilibrium constant (Kb) of less than 3.16 nM.

The molecule `N#Cc1ccc(N2CCC(C(=O)N3CCN(C4CCCC4)CC3)CC2)cc1` [Example E31, 1-Cyclopentyl-4-[1-(4cyano-phenyl)-piperidine-4-carbonyl]-piperazine hydrochloride] had a Kb of less than 3.16 nM.

`C[C@@H]1CN(C(=O)C2CCN(c3ccc(C#N)cc3)CC2)C[C@H](C)N1C1CCC1` [Example E33, (2R,6S)-1-Cyclobutyl-4-[1-(4-cyanophenyl)-piperidine-4-carbonyl]-2,6-dimethylpiperazine hydrochloride]: the antagonist dissociation constant (Kb) was less than 3.16 nM.

As to `N#Cc1ccc(N2CCC(C(=O)N3CCCN(C4CCC4)CC3)CC2)cc1` [Example E36, 1-Cyclobutyl-4-[1-(4-cyanophenyl)-piperidine4-carbonyl]-[1,4]-diazepane], the Kb is less than 1 nM.

Molecule `N#Cc1ccc(N2CCC(C(=O)N3CCCN(C4CCC4)CC3)CC2)nc1` [Example E37, 1-Cyclobutyl-4-[1-(5-cyanopyridin-2-yl)-piperidine4-carbonyl]-[1,4]-diazepane] had a Kb of less than 1 nM.

Turning to `CC(C)N1CCCN(C(=O)C2CCN(c3ccc(C#N)cc3)CC2)CC1` [Example E38, 1-Isopropyl-4-[1-(4-cyanophenyl)-piperidine4-carbonyl]-[1,4]-diazepane], the antagonist dissociation constant (Kb) was less than 1 nM.

Regarding `CC(C)N1CCCN(C(=O)C2CCN(c3cc(F)c(C#N)cc3F)CC2)CC1` [Example E39, 1-Isopropyl-4-[1-(4-cyano-2,5-difluorophenyl)-piperidine-4-carbonyl]-[1,4]-diazepane], the antagonist equilibrium constant (Kb) was less than 3.16 nM.

Consider `CC(C)N1CCCN(C(=O)C2CCN(c3ccc(C#N)c(Cl)c3)CC2)CC1` [Example E40, 1-Isopropyl-4-[1-(4-cyano-3-chlorophenyl)-piperidine-4-carbonyl]-[1,4]-diazepane], for which the Kb is less than 3.16 nM.

`CC(C)N1CCCN(C(=O)C2CCN(c3ccc(C#N)c(F)c3)CC2)CC1` [Example E41, 1-Isopropyl-4-[1-(4-cyano-3-fluoro-phenyl)-piperidine4-carbonyl]-[1,4]-diazepane] had a Kb of less than 3.16 nM.

For the molecule `CC(C)N1CCCN(C(=O)C2CCN(c3c(F)cc(C#N)cc3F)CC2)CC1` [Example E42, 1-Isopropyl-4-[1-(4-cyano-2,6-difluoro-phenyl)-piperidine-4-carbonyl]-[1,4]-diazepane], the antagonist dissociation constant (Kb) was less than 3.16 nM.

For the molecule `CC(C)N1CCCN(C(=O)C2CCN(c3ccc(C#N)cc3F)CC2)CC1` [Example E43, 1-Isopropyl-4-[1-(4-cyano-2-fluoro-phenyl)-piperidine-4-carbonyl]-[1,4]-diazepane], the Kb was less than 3.16 nM.

Consider `CC(C)N1CCCN(C(=O)C2CCN(c3ccc(C#N)c(C(F)(F)F)c3)CC2)CC1` [Example E44, 1-Isopropyl4-[1-(4-cyano-3-trifluoromethyl-phenyl)-piperidine-4-carbonyl]-[1,4]-diazepane], for which the antagonist dissociation constant (Kb) was less than 3.16 nM.

The molecule `CC(C)N1CCCN(C(=O)C2CCN(c3ccc(C(F)(F)F)cc3)CC2)CC1` [Example E45, 1-Isopropyl-4-[1-(4-trifluoromethyl-phenyl)-piperidine-4-carbonyl]-[1,4]-diazepane] had an antagonist dissociation constant (Kb) of less than 3.16 nM.

For the molecule `CC(C)N1CCCN(C(=O)C2CCN(c3ccc(C#N)c4ccccc34)CC2)CC1` [Example E46, 1-Isopropyl-4-[1-(4-cyano-naphthalen-1-yl)-piperidine-4-carbonyl]-[1,4]-diazepane], the antagonist equilibrium constant (Kb) is less than 3.16 nM.

Molecule `CC(C)N1CCCN(C(=O)C2CCN(c3ccc(Cl)c(Cl)c3)CC2)CC1` [Example E54, 1-Isopropyl-4-[1-(3,4-dichlorophenyl)-piperidine-4-carbonyl]-[1,4]-diazepane] gave a Kb of less than 3.16 nM.

Regarding `CC(C)N1CCCN(C(=O)C2CCN(c3ccc(OC(F)(F)F)cc3)CC2)CC1` [Example E56, 1-Isopropyl-4-[1-(4-trifluoromethoxyphenyl)-piperidine4-carbonyl]-[1,4]-diazepane], the Kb was less than 3.16 nM.

In turn, `CC(C)N1CCCN(C(=O)C2CCN(c3ccc(OC(F)F)cc3)CC2)CC1` [Example E59, 1-Isopropyl-4-[1-(4-difluoromethoxyphenyl)-piperidine-4-carbonyl]-[1,4]-diazepane] gave a Kb of less than 3.16 nM.
